Experimental data as given in patent publication US20030012780A1, “Anti-inflammatory medicaments” (Karolinska Innovation AB, priority 1998, published 2003).

Experiments:
[1] = test system: PAF-stimulated PMN locomotion in the rat mesentery; assay: Intravital time lapse videomicroscopy of PMN locomotion in rat mesentery in vivo; settings: PAF 10^-7 M
Procedure: Intravital time lapse videomicroscopy of PMN locomotion in vivo. PMN locomotion in rat mesenteric tissue was studied through use of intravital time lapse videomicroscopy according to the protocol previously described in detail (Werr et al., supra). In brief, Wistar rats (200-250 g) were anesthetized with equal parts of fluanison/fentanyl (10/0.2 mg/ml; Hypnorm; Janssen-Cilag Ltd., Saunderton, UK) and midazolam (5 mg/ml; Dormicum; Hoffman-La Roche, Basel, Switzerland) diluted 1:1 with sterile water (2 ml/kg i.m.). Body temperature was maintained at 37° C. by a heating pad connected to a rectal thermistor. After laparotomy, a segment of the ileum was exposed on a heated transparent pedestal to allow microscopic observation of the mesenteric microvasculature (Orthoplan microscope equipped with water immersion lens SW×25, NA 0.60; Leitz, Wetzlar, Germany). The microscopic image was televised and recorded on time lapse video (at 1/7 of normal speed). Analysis of leukocyte migration in the mesenteric tissue was made off line and the migration path of individual leukocytes was tracked with a digital image analyzer.
Leukocyte extravasation and migration was induced by soaking the exposed mesentery with 5 ml bicarbonate buffer solution (37° C.) containing PAF at a concentration of 10^−7 M. The tissue was then covered with a transparent plastic film to provide continues chemotactic stimulation by PAF. After 40 min of chemotactic stimulation, when numerous leukocytes had extravasated, time lapse recording of leukocyte migration was undertaken, first for 20 min to assess basal migration rates in response to PAF stimulation, and then for additional 40 min in the presence of PAF together with antibodies or peptides. The antibody concentration in the mixture administered to the tissue was for all antibodies 100 μg/ml. The peptide DGEA was similarly administered at a concentration of 25 mM and SLIDIP/RGDGW at a concentration of 500 μM. Due to dilution of the reagent in fluid covering the tissue these seemingly high doses, ˜10 times the documented effective blocking dose, were chosen in order to reach a sufficient concentration in proximity of the migrating leukocytes in the tissue. […] As previously documented, more than 85% of the migrating cells were neutrophils (Werr et al., supra).

[2] = test system: fMLP-stimulated human PMN locomotion in collagen (type I) gels; assay: PMN migration in gels of collagen (type I); format: cell-based; settings: fMLP 10^-7 M; DGEA 5 mM; 30 min at 37° C.
Procedure: PMN migration in gels of collagen (type I) and gelatin. Gels were formed in 24-well culture dishes (250 μl/well) by mixing 8.5 volumes of rat collagen solution or bovine gelatin solution (Sigma) at a concentration of 1.5 mg/ml with 1 volume of ×10 MEM (Life Technologies, Gaithersburg, Md.) and 0.5 volume of 4.4% NaHCO3 and fMLP (final concentration 10^−7 M). Purified human PMN (0.5×106), suspended in 200 μl of MEM containing 10^−9 fMLP were placed on top of the gels and incubated with or without mAb:s or peptides for 30 min at 37° C. The final concentration was for all mAb:s 20 μg/ml, for DGEA 5 mM and for SLIDIP/RGDGW 100 μM. Four to six experiments were run in duplicate gels for each reagent tested and ten randomly chosen microscopic fields (with a defined area of 0.0625 mm) were analyzed in each gel. The migration of PMN into the gel was analyzed with an Leitz Orthoplan microscope equipped with a water immersion lens (Leitz UO×55W, NA 0.80) by focusing down through the gel. The calibrated micrometer scale in the fine focus adjustment was used to determine the migration distance of individual PMN from the upper gel surface. The average migration distance of the three leading cells in each field was calculated and defined as the migration distance of the leading front.

[3] = ten-fold higher concentrations of SLIDIP/RGDGW in some experiments

Row | Substance | effect on PMN migration (in words) [1, 3] | effect on PMN migration (in words) ([1]; topical SLIDIP/RGDGW 500 μM) | migration distance of the leading front in collagen gels (in words) [2] | inhibition of PMN migration velocity ([1]; topical DGEA 25 mM, p<0.001)
1 | ACRGDGWMCG | did not yield different effects | without effect | – | –
2 | DGEA | – | – | to the level of non-stimulated cells | 70±10%
3 | SLIDIP | did not yield different effects | without effect | – | –
